# Measurements published in US20240325398A1, “COMBINATION THERAPIES” (Infinity Pharmaceuticals, Inc., priority 2014, published 2024).
# Assays:
# Test in all cases: Combination study, ATPLite 72 h, dose matrix (Synergy Score, CI50)
# SU-DHL-10-epst = system: SU-DHL-10-epst
# Farage = details: Farage
# RL = system: RL
# Procedure: (§1) Cells are thawed from a liquid nitrogen preserved state. Once cells have been expanded and divide at their expected doubling times, screening begins. Cells are seeded in growth media in either black 1536-well or 384-well tissue culture treated plates. Cells are then equilibrated in assay plates via centrifugation and placed in incubators attached to the Dosing Modules at 37° C. for 24 hours before treatment. […] These Tzero (To) plates are read using ultra-sensitive luminescence on Envision plate readers (Perkin Elmer). Treated assay plates are incubated with compound for 72 hours. After 72 hours, plates are developed for endpoint analysis using ATPLite. All data points are collected via automated processes, quality controlled and analyzed using Zalicus software.
# (§2) where T is treated cell count and V is untreated (vehicle) cell count (at 72 hours). I ranges from 0% (when T=V) to 100% (when T=0). […] The measure of effect in the experiment can be the inhibition of cellular response relative to the untreated level (vehicle alone). […] The inhibition ranges from 0% at the untreated level to 100% when T=0. Inhibition levels are negative for agents that actually increase levels. Other effect measures, such as an activity ratio r=T/V may be more appropriate for some assays. When activity ratios (e.g, fold increase over stimulated control) are being used, the effect can be measured using an induction 1=ln(T/V). With this definition, all effect expressions are the same as for inhibition.
# (§3) Growth Inhibition (GI) is used as a measure of cell viability. […] A GI reading of 100% represents complete growth inhibition—T72 compound-treated and T0 vehicle signals are matched. […] A GI reading of 200% represents complete death of all cells in the culture well. Compounds reaching an activity plateau of GI 200% are considered cytotoxic. GI is calculated by applying the following test and equation:
# (§4) Combination analysis data were collected in a 6×6 dose matrix. Synergy is calculated by comparing a combination's response to those of its single compound, against the drug-with-itself dose-additive reference model. Deviations from dose additivity may be assessed visually on an isobologram or numerically with a Combination Index (CI). […] Additive effect is CI=1.0. […] Antagonistic effect is CI>1.0.
# (§5) To measure combination effects in excess of Loewe additivity, a scalar measure to characterize the strength of synergistic interaction termed the Synergy Score is devised. The Synergy Score is calculated as:
# (§6) The fractional inhibition for each component agent and combination point in the matrix is calculated relative to the median of all vehicle-treated control wells. The Synergy Score equation integrates the experimentally-observed activity volume at each point in the matrix in excess of a model surface numerically derived from the activity of the component agents using the Loewe model for additivity. Additional terms in the Synergy Score equation (above) are used to normalize for various dilution factors used for individual agents and to allow for comparison of synergy scores across an entire experiment. The inclusion of positive inhibition gating or an Idata multiplier removes noise near the zero effect level, and biases results for synergistic interactions at that occur at high activity levels.
# (§7) Loewe Volume (Loewe Vol) is used to assess the overall magnitude of the combination interaction in excess of the Loewe additivity model. Loewe Volume is particularly useful when distinguishing synergistic increases in a phenotypic activity (positive Loewe Volume) versus synergistic antagonisms (negative Loewe Volume). […] This model defines additivity as a non-synergistic combination interaction where the combination dose matrix surface should be indistinguishable from either drug crossed with itself.
# WSU-NHL = system: WSU-NHL
# Procedure: as §1, §2, §3, §4, §5, §6, §7
# SU-DHL-4-epst = system: SU-DHL-4-epst
# KARPAS-422 = system: KARPAS-422
# Procedure: as §1, §2, §3, §4, §5, §6, §7
smiles,measurement,setting,value
"C[C@H](Nc1ncnc2[nH]cnc12)c1cc2cccc(Cl)c2c(=O)n1-c1ccccc1 [Compound 1, (S)-3-(1-((9H-purin-6-yl)amino)ethyl)-8-chloro-2-phenylisoquinolin-1(2H)-one]",CI50 growth inhibition,SU-DHL-10-epst; combination with Dexamethasone,S (S=0.01 to <0.5)
same,CI50 inhibition,SU-DHL-10-epst; combination with Dexamethasone,S (S=0.01 to <0.5)
same,Synergy Score growth inhibition,SU-DHL-10-epst; combination with Dexamethasone,A3 (A3=>3)
same,Synergy Score inhibition,SU-DHL-10-epst; combination with Dexamethasone,A3 (A3=>3)
same,CI50 growth inhibition,SU-DHL-10-epst; combination with LEE011,S (S=0.01 to <0.5)
same,CI50 inhibition,SU-DHL-10-epst; combination with LEE011,S (S=0.01 to <0.5)
same,Synergy Score growth inhibition,SU-DHL-10-epst; combination with LEE011,A3 (A3=>3)
same,Synergy Score inhibition,SU-DHL-10-epst; combination with LEE011,A3 (A3=>3)
same,CI50 growth inhibition,SU-DHL-10-epst; combination with PCI-32765,S (S=0.01 to <0.5)
same,CI50 inhibition,SU-DHL-10-epst; combination with PCI-32765,S (S=0.01 to <0.5)
same,Synergy Score growth inhibition,SU-DHL-10-epst; combination with PCI-32765,A3 (A3=>3)
same,Synergy Score inhibition,SU-DHL-10-epst; combination with PCI-32765,A3 (A3=>3)
same,CI50 growth inhibition,SU-DHL-10-epst; combination with PD-0332991,S (S=0.01 to <0.5)
same,CI50 inhibition,SU-DHL-10-epst; combination with PD-0332991,S (S=0.01 to <0.5)
same,Synergy Score growth inhibition,SU-DHL-10-epst; combination with PD-0332991,A3 (A3=>3)
same,Synergy Score inhibition,SU-DHL-10-epst; combination with PD-0332991,A3 (A3=>3)
same,CI50 growth inhibition,Farage; combination with Dexamethasone,U (U=0.7 to <1)
same,CI50 inhibition,Farage; combination with Dexamethasone,S (S=0.01 to <0.5)
same,Synergy Score growth inhibition,Farage; combination with Dexamethasone,A3 (A3=>3)
same,Synergy Score inhibition,Farage; combination with Dexamethasone,A3 (A3=>3)
same,CI50 growth inhibition,Farage; combination with LEE011,W (W=≥1)
same,CI50 inhibition,Farage; combination with LEE011,W (W=≥1)
same,Synergy Score growth inhibition,Farage; combination with LEE011,A1 (A1=0.0001 to <1)
same,Synergy Score inhibition,Farage; combination with LEE011,A1 (A1=0.0001 to <1)
same,CI50 growth inhibition,Farage; combination with PCI-32765,S (S=0.01 to <0.5)
same,CI50 inhibition,Farage; combination with PCI-32765,S (S=0.01 to <0.5)
same,Synergy Score growth inhibition,Farage; combination with PCI-32765,A3 (A3=>3)
same,Synergy Score inhibition,Farage; combination with PCI-32765,A3 (A3=>3)
same,CI50 growth inhibition,Farage; combination with PD-0332991,T (T=0.5 to <0.7)
same,CI50 inhibition,Farage; combination with PD-0332991,S (S=0.01 to <0.5)
same,Synergy Score growth inhibition,Farage; combination with PD-0332991,A2 (A2=1 to <3)
same,Synergy Score inhibition,Farage; combination with PD-0332991,A2 (A2=1 to <3)
same,CI50 growth inhibition,RL; combination with Dexamethasone,T (T=0.5 to <0.7)
same,CI50 inhibition,RL; combination with Dexamethasone,T (T=0.5 to <0.7)
same,Synergy Score growth inhibition,RL; combination with Dexamethasone,A3 (A3=>3)
same,Synergy Score inhibition,RL; combination with Dexamethasone,A3 (A3=>3)
same,CI50 growth inhibition,RL; combination with LEE011,T (T=0.5 to <0.7)
same,CI50 inhibition,RL; combination with LEE011,U (U=0.7 to <1)
same,Synergy Score growth inhibition,RL; combination with LEE011,A2 (A2=1 to <3)
same,Synergy Score inhibition,RL; combination with LEE011,A1 (A1=0.0001 to <1)
same,CI50 growth inhibition,RL; combination with PCI-32765,S (S=0.01 to <0.5)
same,CI50 inhibition,RL; combination with PCI-32765,S (S=0.01 to <0.5)
same,Synergy Score growth inhibition,RL; combination with PCI-32765,A2 (A2=1 to <3)
same,Synergy Score inhibition,RL; combination with PCI-32765,A2 (A2=1 to <3)
same,CI50 growth inhibition,RL; combination with PD-0332991,S (S=0.01 to <0.5)
same,CI50 inhibition,RL; combination with PD-0332991,S (S=0.01 to <0.5)
same,Synergy Score growth inhibition,RL; combination with PD-0332991,A2 (A2=1 to <3)
same,Synergy Score inhibition,RL; combination with PD-0332991,A2 (A2=1 to <3)
same,CI50 growth inhibition,WSU-NHL; combination with Dexamethasone,S (S=0.01 to <0.5)
same,CI50 inhibition,WSU-NHL; combination with Dexamethasone,S (S=0.01 to <0.5)
same,Synergy Score growth inhibition,WSU-NHL; combination with Dexamethasone,A3 (A3=>3)
same,Synergy Score inhibition,WSU-NHL; combination with Dexamethasone,A3 (A3=>3)
same,CI50 growth inhibition,WSU-NHL; combination with LEE011,S (S=0.01 to <0.5)
same,CI50 inhibition,WSU-NHL; combination with LEE011,S (S=0.01 to <0.5)
same,Synergy Score growth inhibition,WSU-NHL; combination with LEE011,A2 (A2=1 to <3)
same,Synergy Score inhibition,WSU-NHL; combination with LEE011,A2 (A2=1 to <3)
same,CI50 growth inhibition,WSU-NHL; combination with PCI-32765,S (S=0.01 to <0.5)
same,CI50 inhibition,WSU-NHL; combination with PCI-32765,S (S=0.01 to <0.5)
same,Synergy Score growth inhibition,WSU-NHL; combination with PCI-32765,A3 (A3=>3)
same,Synergy Score inhibition,WSU-NHL; combination with PCI-32765,A3 (A3=>3)
same,CI50 growth inhibition,WSU-NHL; combination with PD-0332991,S (S=0.01 to <0.5)
same,CI50 inhibition,WSU-NHL; combination with PD-0332991,S (S=0.01 to <0.5)
same,CI50 growth inhibition,SU-DHL-4-epst; combination with Dexamethasone,S (S=0.01 to <0.5)
same,CI50 inhibition,SU-DHL-4-epst; combination with Dexamethasone,S (S=0.01 to <0.5)
same,Synergy Score growth inhibition,SU-DHL-4-epst; combination with Dexamethasone,A3 (A3=>3)
same,Synergy Score inhibition,SU-DHL-4-epst; combination with Dexamethasone,A3 (A3=>3)
same,CI50 growth inhibition,SU-DHL-4-epst; combination with LEE011,S (S=0.01 to <0.5)
same,CI50 inhibition,SU-DHL-4-epst; combination with LEE011,S (S=0.01 to <0.5)
same,Synergy Score growth inhibition,SU-DHL-4-epst; combination with LEE011,A2 (A2=1 to <3)
same,Synergy Score inhibition,SU-DHL-4-epst; combination with LEE011,A2 (A2=1 to <3)
same,CI50 growth inhibition,SU-DHL-4-epst; combination with PCI-32765,S (S=0.01 to <0.5)
same,CI50 inhibition,SU-DHL-4-epst; combination with PCI-32765,S (S=0.01 to <0.5)
same,Synergy Score growth inhibition,SU-DHL-4-epst; combination with PCI-32765,A3 (A3=>3)
same,Synergy Score inhibition,SU-DHL-4-epst; combination with PCI-32765,A3 (A3=>3)
same,CI50 growth inhibition,SU-DHL-4-epst; combination with PD-0332991,S (S=0.01 to <0.5)
same,CI50 inhibition,SU-DHL-4-epst; combination with PD-0332991,S (S=0.01 to <0.5)
same,Synergy Score growth inhibition,SU-DHL-4-epst; combination with PD-0332991,A3 (A3=>3)
same,Synergy Score inhibition,SU-DHL-4-epst; combination with PD-0332991,A2 (A2=1 to <3)
same,CI50 growth inhibition,KARPAS-422; combination with Dexamethasone,U (U=0.7 to <1)
same,CI50 inhibition,KARPAS-422; combination with Dexamethasone,T (T=0.5 to <0.7)
same,Synergy Score growth inhibition,KARPAS-422; combination with Dexamethasone,A3 (A3=>3)
same,Synergy Score inhibition,KARPAS-422; combination with Dexamethasone,A2 (A2=1 to <3)
same,CI50 growth inhibition,KARPAS-422; combination with LEE011,S (S=0.01 to <0.5)
same,CI50 inhibition,KARPAS-422; combination with LEE011,S (S=0.01 to <0.5)
same,Synergy Score growth inhibition,KARPAS-422; combination with LEE011,A2 (A2=1 to <3)
same,Synergy Score inhibition,KARPAS-422; combination with LEE011,A2 (A2=1 to <3)
same,CI50 growth inhibition,KARPAS-422; combination with PCI-32765,S (S=0.01 to <0.5)
same,CI50 inhibition,KARPAS-422; combination with PCI-32765,S (S=0.01 to <0.5)
same,Synergy Score growth inhibition,KARPAS-422; combination with PCI-32765,A3 (A3=>3)
same,Synergy Score inhibition,KARPAS-422; combination with PCI-32765,A2 (A2=1 to <3)
same,CI50 growth inhibition,KARPAS-422; combination with PD-0332991,S (S=0.01 to <0.5)
same,CI50 inhibition,KARPAS-422; combination with PD-0332991,S (S=0.01 to <0.5)
same,Synergy Score growth inhibition,KARPAS-422; combination with PD-0332991,A2 (A2=1 to <3)
same,Synergy Score inhibition,KARPAS-422; combination with PD-0332991,A2 (A2=1 to <3)
